# Active and inactive are the calls of the source. No cut-off for these calls is given here.
# Assays:
# [1] = (§1) Cytotoxicity against mouse CD8-positive T cells in Ova- immunized C57BL/6NCrl mouse assessed as reduction in cell viability at 1 mg administrated on day 0 and as booster dose on day 21 followed by injection of cells to immunized mouse on day 27 in presence of 1 ug ovalbumin and measured on day 28 by flow cytometry analysis; type: toxicity, cell-based; details: 672 h, time 28 day
# [2] = organism: Mus musculus; experiment: Immuno-adjuvant activity in C57BL/6NCrl mouse assessed as increase in anti-ova total IgG level in serum at 1 mg in presence of 1 ug ovalbumin and measured 20 days post immunization by ELISA; type: functional, organism-based; details: time 20.0 day
# [3] = organism: Mus musculus; experiment: Immuno-adjuvant activity in C57BL/6NCrl mouse assessed as increase in anti-ova total IgG level in serum at 0.3 to 1 mg in presence of 10 ug ovalbumin and measured 20 days post immunization by ELISA; type: functional, organism-based; details: dose 0.3-1 mg, time 20.0 day
# [4] = test system: Mus musculus; experiment: Immuno-adjuvant activity in C57BL/6NCrl mouse assessed as increase in anti-ova total IgG level in serum at 0.3 to 1 mg administered on day 0 and as booster dose on day 21 in presence of 10 ug ovalbumin measured on day 28 by ELISA; type: functional, organism-based; details: dose 0.3-1 mg, time 28.0 day
# [5] = as §1, with “of 10” for “of 1”; type: toxicity, cell-based; details: 672 h, time 28 day
# [6] = organism: Mus musculus; experiment: Immuno-adjuvant activity in C57BL/6NCrl mouse assessed as increase in IFN-gamma spot forming cells measured per 10^6 splenocytes at 0.3 mg in presence of 10 ug ovalbumin incubated for 20 hrs with SIINFEKL peptide stimulant and measured on day 28 by AEC chromogen based ELISPOT analysis; type: functional
# [7] = as §1, with “at 0.3” for “at 1”, “of 10” for “of 1”; type: toxicity, cell-based; details: 672 h, time 28 day
# [8] = test system: Mus musculus; experiment: Immuno-adjuvant activity in C57BL/6NCrl mouse assessed as increase in anti-ova total IgG level in serum at 0.3 to 1 mg administered on day 0 and as booster dose on day 21 in presence of 1 ug ovalbumin measured on day 28 by ELISA; type: functional, organism-based; details: dose 0.3-1 mg, time 28.0 day
# [9] = organism: Mus musculus; experiment: Immuno-adjuvant activity in C57BL/6NCrl mouse assessed as increase in IFN-gamma spot forming cells measured per 10^6 splenocytes at 1 mg in presence of 10 ug ovalbumin incubated for 20 hrs with SIINFEKL peptide stimulant and measured on day 28 by AEC chromogen based ELISPOT analysis; type: functional
# [10] = organism: Mus musculus; experiment: Immuno-adjuvant activity in C57BL/6NCrl mouse assessed as increase in IFN-gamma spot forming cells measured per 10^6 splenocytes at 1 mg in presence of 1 ug ovalbumin incubated for 20 hrs with SIINFEKL peptide stimulant and measured on day 28 by AEC chromogen based ELISPOT analysis; type: functional
SMILES,Activity [1],Activity [2],Activity [3],Activity [4],Activity [5],Activity [6],Activity [7],Activity [8],Activity [9],Activity [10]
CC(C)CCCC(C)CCCC(C)CCCC(C)CCOCC(CO[C@@H]1O[C@H](CO)[C@@H](O[C@@H]2O[C@H](COS(=O)(=O)[O-])[C@H](O)[C@H](O)[C@H]2O)[C@H](O)[C@H]1O)OCCC(C)CCCC(C)CCCC(C)CCCC(C)C.[Na+] (stereo not given in full),Toxic,Active,Active,Active,Toxic,6,Toxic,Active,40,6
CC(C)CCC[C@@H](C)CCC[C@@H](C)CCC[C@@H](C)CCOC[C@H](CO[C@@H]1O[C@H](CO)[C@@H](O[C@@H]2O[C@H](COS(=O)(=O)[O-])[C@H](O)[C@H](O)[C@H]2O)[C@H](O)[C@H]1O)OCC[C@H](C)CCC[C@H](C)CCC[C@H](C)CCCC(C)C.[Na+],Toxic,Active,Active,Active,Toxic,6,Toxic,Active,40,6
CC(C)CCC[C@@H](C)CCC[C@@H](C)CCC[C@@H](C)CCOC[C@@H](CO[C@@H]1O[C@H](CO)[C@@H](O[C@@H]2O[C@H](COS(=O)(=O)[O-])[C@H](O)[C@H](O)[C@H]2O)[C@H](O)[C@H]1O)OCC[C@H](C)CCC[C@H](C)CCC[C@H](C)CCCC(C)C.[Na+],Toxic,Active,Active,Active,Toxic,6,Toxic,Active,40,6
